Results as given in patent US11300640B2, “Protein reporters for ultrasensitive detection methods” (The Trustees of the University of Pennsylvania, priority 2017, dated 2022).
“Also recorded” adds a separate entry of the source.

How the values were obtained:
MBP = MBP (Escherichia coli, UniProt P0AEX9); settings: binding to MBP; cited from earlier work
[1] = 129Xe hyper-CEST NMR of GFP-RBP mutants
Description: To evaluate whether GFP-RBP(L19A) reports any Xe hyper-CEST contrast, a hyper-CEST z-spectrum was acquired from 10 μM GFP-RBP(L19A) in the presence and absence of ribose. Multiple selective Dsnob-shaped saturation pulses were scanned over the chemical shift range of 93-358 ppm in 5 ppm steps, and the ^129Xe(aq) signal was measured as a function of saturation pulse offset (FIG. 55).
To assess the detection sensitivity of GFP-RBP(L19A), time-dependent saturation transfer experiments were performed by measuring Xe(aq) polarization as a function of saturation time. Shaped saturation pulses were applied at the chemical shift of Xe@RBP(L19A)closed, and the residual aqueous ^129Xe signal after saturation transfer was measured as an on-resonance CEST response. Saturation frequencies of Dsnob-shaped pulses were positioned at +42.5 and −42.5 ppm, referenced to the Xe(aq) peak, for on- and off-resonance, respectively. The pulse length was 1.727 ms, and the field strength was 170 μT. The normalized difference between on- and off-resonance signals was represented by the saturation contrast.

[2] = parameters: Ka of Xe binding / Ka for Xe binding to MBP+βCD: unit not given here; settings: cited from earlier work; for xenon association constant: room temperature
[3] = MBP fluorescence quenching by maltose; type: binding; settings: 4 μM MBP, 400 μM maltose, 20 mM HEPES pH 7.4, excitation 280 nm
Description: Fluorescence spectra were obtained on a Tecan Infinite M1000 PRO microplate reader using black 96 well flat-bottom microplates (Grenier Bio-One). […] Excitation was at 280 nm and emission was scanned from 300 to 400 nm in 1 nm increments. All fluorescence assays were performed in triplicate and averaged. Fluorescence spectra were background corrected by subtracting the fluorescence spectrum of the well solution in the absence of protein.

BL21(DE3) E. coli = test: Hyper-CEST of MBP expressed in E. coli (pET-MBP plasmid); type: cell-based; settings: for Contrast, corrected: contrast of non-induced E. coli subtracted; for T1off / T1on: OD600=9; for saturation contrast: OD600=9, +95/−95 ppm
Description: All cell solutions were normalized to OD600=9. Saturation frequencies of Dsnob-shaped pulses were positioned at +95 ppm and −95 ppm, referenced to the Xe(aq) peak, for on- and off-resonance, respectively. Pulse length, τpulse=1.0496 ms; field strength, B1,max=279 μT. Both on-resonance and off-resonance data were fitted with first-order exponential decay curves.

[4] = 129Xe hyper-CEST NMR of purified MBP and MBP mutants; settings: for T1off / T1on / saturation contrast: 100 nM WT MBP
Description: Briefly, HP ^129Xe was generated using the spin-exchange optical pumping (SEOP) method with a home-built ^129Xe polarizer based on the IGI.Xe.2000 commercial model by GE. A Shark 65 W tunable ultra-narrow band diode laser (OptiGrate) set to 795 nm was used for optical pumping of Rb vapor. A gas mixture of 88% helium, 10% nitrogen, and 2% natural abundance xenon (Linde Group, N.J.) was used as the hyperpolarizer input. ^129Xe hyperpolarization level was roughly 10-15%. For each data point in the hyper-CEST z-spectra, HP ^129Xe was bubbled into the NMR tube through capillaries for 20 seconds, followed by a 3-second delay to allow bubbles to collapse. A Dsnob saturation pulse with 690 Hz bandwidth was used. Pulse length tpulse=3.80 ms, field strength B1, max=77 μT, number of pulses npulse=400, saturation time Tsat=1.52 s. NMR experiments were performed using a Bruker BioDRX 500 MHz NMR spectrometer and 10-mm PABBO probe, at 300 K. A 900 hard pulse of this probe has a pulse length of 22 μs. Unless otherwise noted, the protein concentration used was 80 μM, with 0.1% (v/v) Pluronic L81 (Aldrich) added to mitigate foaming.
Briefly, hyperpolarized (hp)^129Xe was generated using the spin-exchange optical pumping (SEOP) method with a home-built ^129Xe polarizer based on the IGI.Xe.2000 commercial model by GE. A Shark 65 W tunable ultra-narrow band diode laser (OptiGrate) set to 795 nm was used for optical pumping of Rb vapor. A gas mixture of 88% helium, 10% nitrogen, and 2% natural abundance xenon (Linde Group, N.J.) was used as the hyperpolarizer input. ^129Xe hyperpolarization level was roughly 10-15%. For each data point in the hyper-CEST z-spectra, hp ^129Xe was bubbled into the NMR tube through capillaries for 20 s, followed by a 3-s delay to allow bubbles to collapse. A d-SNOB saturation pulse with 690 Hz bandwidth was used. Pulse length, tpulse=3.80 ms; field strength B1,max=77 μT; number of pulses, npulse=400; saturation time, Tsat=1.52 s. NMR experiments were performed using a Bruker BioDRX 500 MHz NMR spectrometer and 10-mm PABBO probe, at 300 K. A 900 hard pulse of this probe has a pulse length of 22 μs. Unless otherwise noted, the protein concentration used was 80 μM, with 0.1% (v/v) Pluronic L81 (Aldrich) added to mitigate foaming. […] Pulse length, Tpulse=1.0496 ms; field strength, B1max=279 μT. Both on-resonance and off-resonance data were fitted with first-order exponential decay curves.

[5] = RBP from E. coli; read-out: Kd for ribose; cited from earlier work
[6] = bla hydrolase activity assay pre- and post-CEST; type: biochemical; settings: 5 nM enzyme, 450 μM nitrocefin, 50 mM Tris pH 7.4, 5% DMSO
Description: The hydrolysis of nitrocefin was monitored at A482 using an Infinite M1000 Pro plate reader (Tecan).
Product formation was monitored at A482 using an Infinite M1000 Pro plate reader (Tecan). The assays were performed in triplicate for pre- and post-hyper CEST bla(I263A) and bla(I279N) samples.

[7] = induced E. coli with maltose, 6±4 μM MBP
[8] = induced E. coli without maltose, 15±6 μM MBP

In the case of OC[C@H]1O[C@@H]2O[C@H]3[C@H](O)[C@@H](O)[C@@H](O[C@H]4[C@H](O)[C@@H](O)[C@@H](O[C@H]5[C@H](O)[C@@H](O)[C@@H](O[C@H]6[C@H](O)[C@@H](O)[C@@H](O[C@H]7[C@H](O)[C@@H](O)[C@@H](O[C@H]8[C@H](O)[C@@H](O)[C@@H](O[C@H]1[C@H](O)[C@H]2O)O[C@@H]8CO)O[C@@H]7CO)O[C@@H]6CO)O[C@@H]5CO)O[C@@H]4CO)O[C@@H]3CO [βCD, β-cyclodextrin], the Kd (MBP) is given as 1800 nM.

With “GFP-RBP(L19A): fusion of GFP and ribose binding protein with L19A mutation (SEQ ID NO: 46)” the “saturation contrast (maximum)” value ([1]; 100 nM GFP-RBP(L19A), pulses at +42.5/−42.5 ppm) was 0.30±0.01 and the “saturation response in z-spectrum” value ([1]; 10 μM protein, unliganded (no ribose)) was “only a single saturation response”.

In the case of hemoglobin [reference compound], the xenon association constant [2] is listed as “around 200 M^−1”.

For maltose binding protein [MBP], the “Ka for Xe binding to MBP+maltose” value ([2]; 1H-15N HSQC NMR) is listed as “too low to measure”, the “Ka for Xe binding to MBP+βCD” value ([2]; 1H-15N HSQC NMR) is listed as 20±10 and the “Ka of Xe binding” value ([2]; MBP in the open conformation, HSQC NMR) is listed as 20±10. The “Xe binding affinity (association constant)” value ([2]; experimentally determined literature values) was 20 ± 10 M⁻¹, the “magnitude of fluorescence quenching by maltose” value [3] was 22% and the “Contrast per μM MBP” value (BL21(DE3) E. coli; E. coli with maltose) was 0.05 ± 0.03. The “Contrast, corrected” value (BL21(DE3) E. coli; E. coli with maltose) was 0.28, the “Contrast per μM MBP” value (BL21(DE3) E. coli; E. coli without maltose) was 0.013 ± 0.005 and the “Contrast, corrected” value (BL21(DE3) E. coli; E. coli without maltose) was 0.19. For the same molecule, the “increase in observed CEST contrast generated by maltose” value (BL21(DE3) E. coli; background subtracted, normalized to MBP concentration) was 3.7 fold, the T1off (BL21(DE3) E. coli; [7]) was 16.7 ± 0.6 s and the T1on (BL21(DE3) E. coli; [7]) was 4.94 ± 0.10 s. For the same molecule, the saturation contrast (BL21(DE3) E. coli; [7]) was 0.60±0.02, the T1off (BL21(DE3) E. coli; [8]) was 9.3 ± 0.3 s and the T1on (BL21(DE3) E. coli; [8]) was 5.35 ± 0.17 s. It also gave a saturation contrast (BL21(DE3) E. coli; [8]) of 0.40±0.06, a T1off ([4]; 0 μM maltose) of 44 ± 3 s and a T1on ([4]; 0 μM maltose) of 41 ± 2 s. It also gave a saturation contrast ([4]; 0 μM maltose, pH 7.2 PBS, 300 K) of 0.022±0.004, a T1off ([4]; 0.1 μM maltose) of 41 ± 3 s and a T1on ([4]; 0.1 μM maltose) of 34 ± 1 s. The saturation contrast ([4]; 0.1 μM maltose) was 0.050±0.007, the T1off ([4]; 0.3 μM maltose) was 43 ± 1 s and the T1on ([4]; 0.3 μM maltose) was 35 ± 1 s. It also gave a saturation contrast ([4]; 0.3 μM maltose) of 0.05±0.01, a T1off ([4]; 0.5 μM maltose) of 39 ± 1 s and a T1on ([4]; 0.5 μM maltose) of 26.3 ± 0.9 s. For the same molecule, the saturation contrast ([4]; 0.5 μM maltose) was 0.11±0.01, the T1off ([4]; 1 μM maltose) was 50 ± 1 s and the T1on ([4]; 1 μM maltose) was 32.7 ± 0.7 s. It also gave a saturation contrast ([4]; 1 μM maltose) of 0.118±0.007, a T1off ([4]; 3 μM maltose) of 46 ± 2 s and a T1on ([4]; 3 μM maltose) of 26 ± 1 s. The saturation contrast ([4]; 3 μM maltose) was 0.161±0.004, the T1off ([4]; 1 mM maltose) was 55 ± 3 s and the T1on ([4]; 1 mM maltose) was 21.8 ± 0.6 s. The saturation contrast ([4]; 1 mM maltose) was 0.26±0.01, the T1on ([4]; 1 mM maltose, listed as WT MBP) was 21.8 ± 0.7 s and the “lowest maltose concentration readily detected (detection threshold)” value ([4]; 100 nM protein sensor) was 100 nM. For the same molecule, the “downfield saturation response in z-spectrum” value ([4]; 80 μM MBP, 1 mM β-cyclodextrin) was “no downfield Xe@MBP peak; also recorded: no downfield saturation response” and the “saturation response in z-spectrum” value ([4]; 80 μM protein, without maltose) was “only a single saturation response”.

For myoglobin [reference compound], the xenon association constant [2] is listed as “around 200 M^−1”.

B1: ribose binding protein (protein)
chain: KDTIALVVSTLNNPFFVSLKDGAQKEADKLGYNLVVLDSQNNPAKELANVQDLTVRGTKILLINPTDSDAVGNAVKMANQANIPVITLDRQATKGEVVSHIASDNVLGGKIAGDYIAKKAGEGAKVIELQGIAGTSAARERGEGFQQAVAAHKFNVLASQPADFDRIKGLNVMQNLLTAHPDVQAVFAQNDEMALGALRALQTAGKSDVMVVGFDGTPDGEKAVNDGKLAATIAQLPDQIGAKGVETADKVLKGEKVQAKYPVDLKLVVKQ
modifications: Native amino acid sequence of RBP for expression in E. coli
For B1, the Kd [5] is listed as 130 nM.

B2: RBP(L19A): ribose binding protein having a L19A mutation (SEQ ID NO: 44) (protein)
chain: KDTIALVVSTLNNPFFVSAKDGAQKEADKLGYNLVVLDSQNNPAKELANVQDLTVRGTKILLINPTDSDAVGNAVKMANQANIPVITLDRQATKGEVVSHIASDNVLGGKIAGDYIAKKAGEGAKVIELQGIAGTSAARERGEGFQQAVAAHKFNVLASQPADFDRIKGLNVMQNLLTAHPDVQAVFAQNDEMALGALRALQTAGKSDVMVVGFDGTPDGEKAVNDGKLAATIAQLPDQIGAKGVETADKVLKGEKVQAKYPVDLKLVVKQ
modifications: Amino acid sequence of RBP(L19A)
In the case of B2, the “xenon binding affinity, closed conformation” value ([2]; 1H-15N HSQC NMR) is listed as 40 ± 20 M⁻¹ and the “xenon binding affinity, open conformation” value ([2]; 1H-15N HSQC NMR) is listed as 70 ± 30 M⁻¹.

B3: I263A: bla having an I263A mutation (SEQ ID NO: 5) (protein)
chain: MSIQHFRVALIPFFAAFCLPVFAHPETLVKVKDAEDQLGARVGYIELDLNSGKILESFRPEERFPMMSTFKVLLCGAVLSRVDAGQEQLGRRIHYSQNDLVEYSPVTEKHLTDGMTVRELCSAAITMSDNTAANLLLTTIGGPKELTAFLHNMGDHVTRLDRWEPELNEAIPNDERDTTMPAAMATTLRKLLTGELLTLASRQQLIDWMEADKVAGPLLRSALPAGWFIADKSGAGERGSRGIIAALGPDGKPSRIVVAYTTGSQATMDERNRQIAEIGASLIKHW
modifications: TEM-1 beta-lactamase with a I263A mutation (mutation at residue 259)
With B3 the “Initial Rate, after CEST” value ([6]; listed as bla(I263A)) was 0.153±0.009 A482 min^−1 and the “Initial Rate, before CEST” value ([6]; listed as bla(I263A)) was 0.142±0.002 A482 min^−1.

B4: I279N: bla having an I279N mutation (SEQ ID NO: 6) (protein)
chain: MSIQHFRVALIPFFAAFCLPVFAHPETLVKVKDAEDQLGARVGYIELDLNSGKILESFRPEERFPMMSTFKVLLCGAVLSRVDAGQEQLGRRIHYSQNDLVEYSPVTEKHLTDGMTVRELCSAAITMSDNTAANLLLTTIGGPKELTAFLHNMGDHVTRLDRWEPELNEAIPNDERDTTMPAAMATTLRKLLTGELLTLASRQQLIDWMEADKVAGPLLRSALPAGWFIADKSGAGERGSRGIIAALGPDGKPSRIVVIYTTGSQATMDERNRQNAEIGASLIKHW
modifications: TEM-1 beta-lactamase with a I279N mutation (mutation at residue 275)
For B4, the “Initial Rate, after CEST” value [6] was 0.047 ± 0.002 A482 min^−1 and the “Initial Rate, before CEST” value [6] was 0.044 ± 0.003 A482 min^−1.
